Test results from ChEMBL document CHEMBL1201862, “PubChem BioAssay data set” (2004).
Activity calls are given as the source filed them.

Tests used:
CHO-K1 = assay: Counterscreen for antagonists of the orexin 1 receptor (OX1R; HCRTR1): Homogeneous time resolved fluorescence (HTRF)-based cell-based dose response assay to identify antagonists of the parental CHO-K1 cell line. [Related pubchem assays (depositor defined):AID434989, AID435008, AID463079, AID485270, AID492963, AID492964, AID492965, AID493232, AID504699, AID504701]; type: functional; details: Cricetulus griseus;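 also: potency for inhibition of ATP-stimulated IP1 production as antagonists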
[1] = target: T1, Orexin/Hypocretin receptor type 1 (Homo sapiens, UniProt O43613); assay: Fluorescence-based cell-based high throughput dose response assay for antagonists of the orexin 1 receptor (OX1R; HCRTR1). [Related pubchem assays (depositor defined):AID434989, AID435008, AID463079, AID485270, AID492963, AID492964, AID492965, AID493232, AID504717, AID504718]; type: functional
T1 sequence (O43613 whole entry): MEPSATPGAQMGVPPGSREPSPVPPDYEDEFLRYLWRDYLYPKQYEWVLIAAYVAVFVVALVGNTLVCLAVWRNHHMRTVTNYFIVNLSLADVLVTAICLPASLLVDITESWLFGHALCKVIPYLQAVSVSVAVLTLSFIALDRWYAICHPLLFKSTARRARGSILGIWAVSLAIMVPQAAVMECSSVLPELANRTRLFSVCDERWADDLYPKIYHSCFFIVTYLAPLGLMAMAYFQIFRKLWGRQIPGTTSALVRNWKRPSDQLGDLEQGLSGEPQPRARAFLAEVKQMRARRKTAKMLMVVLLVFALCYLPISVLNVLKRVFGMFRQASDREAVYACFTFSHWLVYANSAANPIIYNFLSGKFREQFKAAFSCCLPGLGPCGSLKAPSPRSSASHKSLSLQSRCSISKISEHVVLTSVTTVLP

Orexin receptor type 2 [2] = target: T2, Orexin receptor type 2 (Homo sapiens, UniProt O43614); assay: Counterscreen assay for antagonists of the orexin 1 receptor (OX1R; HCRTR1): Fluorescence-based cell-based dose response assay for antagonists of the orexin 2 receptor (OX2R; HCRTR2), run by assay provider.; type: functional
T2 sequence (O43614 whole entry): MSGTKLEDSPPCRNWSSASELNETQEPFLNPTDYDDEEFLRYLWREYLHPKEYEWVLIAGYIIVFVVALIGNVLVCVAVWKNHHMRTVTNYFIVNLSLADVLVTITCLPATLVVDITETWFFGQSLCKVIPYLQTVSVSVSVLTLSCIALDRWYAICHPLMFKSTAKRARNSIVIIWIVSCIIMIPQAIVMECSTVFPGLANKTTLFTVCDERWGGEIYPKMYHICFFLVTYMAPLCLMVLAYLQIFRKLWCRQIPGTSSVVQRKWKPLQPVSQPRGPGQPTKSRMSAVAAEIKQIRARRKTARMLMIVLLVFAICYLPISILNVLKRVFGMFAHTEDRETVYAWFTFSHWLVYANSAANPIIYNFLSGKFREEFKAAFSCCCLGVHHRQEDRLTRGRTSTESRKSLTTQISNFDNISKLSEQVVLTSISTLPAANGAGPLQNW

[3] = target: T1, Orexin/Hypocretin receptor type 1; assay: Homogeneous Time Resolved Fluorescence (HTRF)-based cell-based high throughput dose response assay for antagonists of the orexin 1 receptor (OX1R; HCRTR1). [Related pubchem assays (depositor defined):AID434989, AID435008, AID463079, AID485270, AID492963, AID492964, AID492965, AID493232, AID504717, AID504718]; type: functional
[4] = Counterscreen for antagonists of the orexin 1 receptor (OX1R; HCRTR1): Fluorescence-based cell-based high throughput dose response assay to identify antagonists of the parental CHO cell line. [Related pubchem assays (depositor defined):AID434989, AID435008, AID463079, AID485270, AID492963, AID492964, AID492965, AID493232, AID504699, AID504701]; type: functional
Orexin receptor type 2 [5] = target: T2, Orexin receptor type 2; assay: Counterscreen assay for antagonists of the orexin 1 receptor (OX1R; HCRTR1): Homogeneous Time Resolved Fluorescence (HTRF)-based cell-based dose response assay for antagonists of the orexin 2 receptor (OX2R; HCRTR2), run by assay provider.; type: functional
[6] = target: T3, DNA dC->dU-editing enzyme APOBEC-3A (Homo sapiens, UniProt P31941); assay: SAR analysis of small molecule inhibitors of APOBEC3A DNA Deaminase via a fluorescence-based single-stranded DNA deaminase assay.; type: functional; details: read-out: IC50_Mean
[7] = target: T4, DNA dC->dU-editing enzyme APOBEC-3G (Homo sapiens, UniProt Q9HC16); assay: SAR analysis of small molecule inhibitors of APOBEC3G DNA Deaminase via a fluorescence-based single-stranded DNA deaminase assay - Set 2.; type: functional; details: read-out: IC50_Mean
[8] = target: T4, DNA dC->dU-editing enzyme APOBEC-3G; assay: inhibition of APOBEC3G ssDNA deamination – biochemical, fluorescence, single-stranded DNA substrate, SAR follow-up (AID 602136); type: functional; details: read-out: IC50_Mean
[9] = target: T3, DNA dC->dU-editing enzyme APOBEC-3A; assay: SAR analysis of small molecule inhibitors of APOBEC3A DNA Deaminase via a fluorescence-based single-stranded DNA deaminase assay - Set 2.; type: functional; details: read-out: IC50_Mean
[10] = target: T5, Alkaline phosphatase, tissue-nonspecific isozyme (Homo sapiens, UniProt P05186)
T5 sequence (P05186 whole entry): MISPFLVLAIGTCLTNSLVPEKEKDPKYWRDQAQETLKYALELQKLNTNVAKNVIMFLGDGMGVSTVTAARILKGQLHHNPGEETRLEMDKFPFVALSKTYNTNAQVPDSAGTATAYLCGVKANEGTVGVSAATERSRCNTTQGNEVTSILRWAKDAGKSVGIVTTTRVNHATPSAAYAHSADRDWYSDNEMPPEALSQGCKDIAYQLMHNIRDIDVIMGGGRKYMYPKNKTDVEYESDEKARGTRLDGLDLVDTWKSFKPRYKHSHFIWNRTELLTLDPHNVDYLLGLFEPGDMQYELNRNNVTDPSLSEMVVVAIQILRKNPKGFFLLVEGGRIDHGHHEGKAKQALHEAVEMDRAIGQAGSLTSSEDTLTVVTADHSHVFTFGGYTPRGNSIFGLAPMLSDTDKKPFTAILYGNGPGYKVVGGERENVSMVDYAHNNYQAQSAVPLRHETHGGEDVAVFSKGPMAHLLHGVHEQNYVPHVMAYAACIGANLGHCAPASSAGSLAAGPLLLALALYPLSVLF

[11] = target: Voltage-gated N-type calcium channel alpha-1B subunit/Amyloid beta A4 precursor protein-binding family A member 1 (Homo sapiens, UniProt Q00975+Q02410); type: protein assay
Insulin-degrading enzyme [12] = target: T6, Insulin-degrading enzyme (Homo sapiens, UniProt P14735); assay: cellular IDE activation of Abeta substrate cleavage – fluorescence polarization, HEK cells, dose response (AID 588439); type: functional, cell-based
T6 sequence (P14735 whole entry): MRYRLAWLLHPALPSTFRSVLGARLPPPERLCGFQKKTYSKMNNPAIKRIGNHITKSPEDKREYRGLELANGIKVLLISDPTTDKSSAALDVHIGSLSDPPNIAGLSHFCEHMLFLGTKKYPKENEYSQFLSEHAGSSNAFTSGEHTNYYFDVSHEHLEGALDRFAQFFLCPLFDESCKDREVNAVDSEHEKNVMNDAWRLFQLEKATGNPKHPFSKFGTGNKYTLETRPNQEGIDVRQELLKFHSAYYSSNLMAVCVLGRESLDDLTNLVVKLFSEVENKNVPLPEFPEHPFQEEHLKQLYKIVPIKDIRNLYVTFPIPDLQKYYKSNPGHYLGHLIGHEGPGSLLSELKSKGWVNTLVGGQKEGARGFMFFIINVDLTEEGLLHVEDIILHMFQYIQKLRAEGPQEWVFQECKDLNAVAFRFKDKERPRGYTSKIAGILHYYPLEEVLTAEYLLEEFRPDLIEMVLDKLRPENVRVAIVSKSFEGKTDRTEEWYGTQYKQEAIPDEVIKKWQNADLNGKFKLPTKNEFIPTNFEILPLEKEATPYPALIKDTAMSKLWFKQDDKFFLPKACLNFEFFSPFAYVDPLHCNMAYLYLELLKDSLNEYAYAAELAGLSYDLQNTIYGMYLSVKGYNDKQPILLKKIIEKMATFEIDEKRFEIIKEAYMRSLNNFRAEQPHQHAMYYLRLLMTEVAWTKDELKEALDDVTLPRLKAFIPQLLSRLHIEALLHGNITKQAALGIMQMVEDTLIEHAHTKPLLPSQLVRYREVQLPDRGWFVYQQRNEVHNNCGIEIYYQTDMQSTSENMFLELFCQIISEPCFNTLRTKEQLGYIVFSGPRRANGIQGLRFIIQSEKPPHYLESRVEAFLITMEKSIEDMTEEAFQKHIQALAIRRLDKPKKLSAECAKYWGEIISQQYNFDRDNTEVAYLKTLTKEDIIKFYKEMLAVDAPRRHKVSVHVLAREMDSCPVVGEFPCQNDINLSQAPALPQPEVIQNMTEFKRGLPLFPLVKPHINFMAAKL

HEK293 [13] = assay: optical interference in Abeta FP readout, dose response, artefact control for IDE activator project, biochemical, fluorescence polarization (AID 588442); type: functional, cell-based; details: Homo sapiens
Insulin-degrading enzyme [14] = target: T6, Insulin-degrading enzyme; assay: recombinant IDE activation, cell-free – biochemical, fluorescence polarization, counter-screen for IDE activator project, dose response (AID 588681)
HEK293 [15] = assay: membrane integrity loss in HEK cells – cell-based, fluorescence, cytotoxicity control for IDE activator project, dose response (AID 588440); type: functional; details: Homo sapiens;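 also: cytotoxicity by LDH release measuring loss of membrane integrity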
[16] = viability of uninfected HEp-2 cells – cell-based, HTS, cytotoxicity control for RSV inhibitor project, dose response (AID 2410); type: functional; details: human respiratory syncytial virus
[17] = target: Mitochondrial peptide methionine sulfoxide reductase (Bos taurus, UniProt P54149); type: functional;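 also: absorbance read-out, biochemical high-throughput dose-response screen for MsrA inhibitors, confirmatory; recombinant bovine MsrA coupled to E. coli TrxB with NADPH and selenocystamine; potency is for inhibitors of MsrA activity on DMSO substrate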
[18] = target: T7, Apoptotic protease-activating factor 1 (Homo sapiens, UniProt O14727); assay: SAR analysis of small molecule Activators of Apaf-1 in a Fluorescent assay.; type: functional; details: read-out: EC50_Mean;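 also: caspase-3 cleavage of fluorogenic Rh110 DEVD substrate downstream of apoptosome activation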
T7 sequence (O14727 whole entry): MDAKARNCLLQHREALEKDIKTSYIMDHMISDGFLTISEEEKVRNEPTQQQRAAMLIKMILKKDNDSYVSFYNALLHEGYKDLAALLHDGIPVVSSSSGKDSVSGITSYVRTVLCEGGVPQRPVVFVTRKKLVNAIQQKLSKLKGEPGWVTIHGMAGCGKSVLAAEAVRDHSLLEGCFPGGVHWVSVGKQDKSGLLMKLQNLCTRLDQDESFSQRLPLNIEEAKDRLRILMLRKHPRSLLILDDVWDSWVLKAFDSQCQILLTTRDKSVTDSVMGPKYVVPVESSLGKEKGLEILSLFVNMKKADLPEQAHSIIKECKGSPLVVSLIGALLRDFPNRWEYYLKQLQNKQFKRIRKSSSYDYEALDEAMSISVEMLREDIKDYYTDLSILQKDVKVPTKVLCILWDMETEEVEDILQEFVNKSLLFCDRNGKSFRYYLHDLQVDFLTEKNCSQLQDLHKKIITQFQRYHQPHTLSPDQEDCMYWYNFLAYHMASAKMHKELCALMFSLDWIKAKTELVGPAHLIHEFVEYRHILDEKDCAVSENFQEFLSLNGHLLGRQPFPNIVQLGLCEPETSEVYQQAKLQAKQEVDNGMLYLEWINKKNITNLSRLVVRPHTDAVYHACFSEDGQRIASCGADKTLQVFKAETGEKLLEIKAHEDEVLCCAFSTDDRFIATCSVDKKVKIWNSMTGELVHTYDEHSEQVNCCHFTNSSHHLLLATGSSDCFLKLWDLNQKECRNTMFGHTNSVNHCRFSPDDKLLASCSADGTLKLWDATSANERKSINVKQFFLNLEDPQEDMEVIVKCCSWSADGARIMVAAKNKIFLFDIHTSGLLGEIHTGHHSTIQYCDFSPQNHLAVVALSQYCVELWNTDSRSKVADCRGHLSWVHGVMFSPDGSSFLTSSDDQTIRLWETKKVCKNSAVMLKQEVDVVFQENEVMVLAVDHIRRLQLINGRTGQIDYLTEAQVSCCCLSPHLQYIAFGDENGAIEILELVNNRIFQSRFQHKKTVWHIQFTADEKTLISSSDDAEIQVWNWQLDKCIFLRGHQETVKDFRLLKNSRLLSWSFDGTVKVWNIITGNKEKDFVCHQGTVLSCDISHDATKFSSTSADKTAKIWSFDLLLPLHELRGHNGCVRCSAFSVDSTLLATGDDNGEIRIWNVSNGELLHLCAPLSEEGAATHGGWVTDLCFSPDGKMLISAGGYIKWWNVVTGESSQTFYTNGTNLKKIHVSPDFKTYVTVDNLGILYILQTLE

[19] = target: Ras and Rab interactor 1/Tyrosine-protein kinase ABL1 (Homo sapiens, UniProt P00519+Q13671); type: functional;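 also: biochemical TR-FRET dose-response test measuring inhibition of binding between Rin1 and Abl proteins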
Sequence of Ras and Rab interactor 1/Tyrosine-protein kinase ABL1 (P00519 whole entry): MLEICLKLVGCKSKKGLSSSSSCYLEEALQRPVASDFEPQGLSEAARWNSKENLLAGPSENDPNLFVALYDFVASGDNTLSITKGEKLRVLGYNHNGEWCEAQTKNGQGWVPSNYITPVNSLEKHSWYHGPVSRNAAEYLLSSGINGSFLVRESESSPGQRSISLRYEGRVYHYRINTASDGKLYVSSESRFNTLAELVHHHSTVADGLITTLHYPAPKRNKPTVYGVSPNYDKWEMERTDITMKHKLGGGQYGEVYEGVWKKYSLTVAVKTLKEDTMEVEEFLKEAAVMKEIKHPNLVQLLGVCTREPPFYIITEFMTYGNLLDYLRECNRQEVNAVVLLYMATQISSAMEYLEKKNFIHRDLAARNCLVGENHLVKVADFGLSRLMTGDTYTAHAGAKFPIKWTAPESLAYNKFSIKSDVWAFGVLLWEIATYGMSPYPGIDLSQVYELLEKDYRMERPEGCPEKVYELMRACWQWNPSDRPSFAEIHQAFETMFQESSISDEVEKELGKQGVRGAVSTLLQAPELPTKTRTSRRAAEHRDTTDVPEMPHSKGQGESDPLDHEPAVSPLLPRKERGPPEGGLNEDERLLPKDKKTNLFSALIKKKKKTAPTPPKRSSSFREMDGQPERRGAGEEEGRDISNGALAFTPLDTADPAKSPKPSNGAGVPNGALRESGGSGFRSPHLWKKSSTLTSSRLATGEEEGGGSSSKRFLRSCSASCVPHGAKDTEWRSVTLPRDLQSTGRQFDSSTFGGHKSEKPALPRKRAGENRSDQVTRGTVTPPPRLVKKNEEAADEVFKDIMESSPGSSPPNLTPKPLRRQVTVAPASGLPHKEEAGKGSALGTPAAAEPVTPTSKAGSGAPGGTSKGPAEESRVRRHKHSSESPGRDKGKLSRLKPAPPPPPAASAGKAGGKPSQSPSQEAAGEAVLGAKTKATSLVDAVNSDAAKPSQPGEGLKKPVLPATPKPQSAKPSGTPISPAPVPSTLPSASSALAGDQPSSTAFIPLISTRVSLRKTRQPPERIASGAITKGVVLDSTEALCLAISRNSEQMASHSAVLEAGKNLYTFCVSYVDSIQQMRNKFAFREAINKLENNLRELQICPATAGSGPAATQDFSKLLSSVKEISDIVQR
Sequence of Ras and Rab interactor 1/Tyrosine-protein kinase ABL1 (Q13671 whole entry): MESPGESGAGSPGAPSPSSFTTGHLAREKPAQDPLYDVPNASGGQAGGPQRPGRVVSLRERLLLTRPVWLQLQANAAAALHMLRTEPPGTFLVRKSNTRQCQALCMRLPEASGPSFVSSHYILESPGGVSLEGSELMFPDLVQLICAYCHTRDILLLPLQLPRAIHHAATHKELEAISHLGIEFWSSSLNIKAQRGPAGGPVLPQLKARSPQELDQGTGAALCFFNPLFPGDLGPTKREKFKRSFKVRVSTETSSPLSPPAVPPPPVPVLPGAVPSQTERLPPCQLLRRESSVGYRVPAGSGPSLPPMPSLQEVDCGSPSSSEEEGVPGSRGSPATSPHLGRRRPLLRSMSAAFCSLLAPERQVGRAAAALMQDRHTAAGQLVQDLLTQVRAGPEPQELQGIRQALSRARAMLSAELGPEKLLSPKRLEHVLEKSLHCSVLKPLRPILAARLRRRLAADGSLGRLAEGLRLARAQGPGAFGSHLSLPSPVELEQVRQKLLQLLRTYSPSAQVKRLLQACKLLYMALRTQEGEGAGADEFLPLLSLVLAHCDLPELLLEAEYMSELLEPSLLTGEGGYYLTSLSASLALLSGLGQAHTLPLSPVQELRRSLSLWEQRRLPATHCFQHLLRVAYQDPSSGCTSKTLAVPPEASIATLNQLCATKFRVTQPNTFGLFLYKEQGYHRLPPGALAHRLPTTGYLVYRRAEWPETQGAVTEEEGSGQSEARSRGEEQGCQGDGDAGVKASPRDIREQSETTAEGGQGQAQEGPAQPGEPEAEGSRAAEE

T3 sequence (P31941 whole entry): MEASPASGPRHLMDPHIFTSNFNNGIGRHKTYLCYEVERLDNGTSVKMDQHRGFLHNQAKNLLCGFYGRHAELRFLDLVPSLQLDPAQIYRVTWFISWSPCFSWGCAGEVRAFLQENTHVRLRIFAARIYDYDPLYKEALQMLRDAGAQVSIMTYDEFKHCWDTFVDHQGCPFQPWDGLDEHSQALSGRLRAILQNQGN
T4 sequence (Q9HC16 whole entry): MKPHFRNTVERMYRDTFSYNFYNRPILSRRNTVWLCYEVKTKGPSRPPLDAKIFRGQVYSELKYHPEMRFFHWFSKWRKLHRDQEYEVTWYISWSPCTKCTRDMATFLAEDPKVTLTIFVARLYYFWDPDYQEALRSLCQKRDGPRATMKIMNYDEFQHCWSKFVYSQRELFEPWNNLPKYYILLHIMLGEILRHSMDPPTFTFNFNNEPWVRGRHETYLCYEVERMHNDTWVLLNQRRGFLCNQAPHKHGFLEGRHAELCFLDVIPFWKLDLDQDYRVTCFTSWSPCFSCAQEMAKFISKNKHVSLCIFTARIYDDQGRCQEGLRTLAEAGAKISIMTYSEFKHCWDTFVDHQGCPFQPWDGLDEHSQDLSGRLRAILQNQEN
Sequence of Mitochondrial peptide methionine sulfoxide reductase (P54149 whole entry): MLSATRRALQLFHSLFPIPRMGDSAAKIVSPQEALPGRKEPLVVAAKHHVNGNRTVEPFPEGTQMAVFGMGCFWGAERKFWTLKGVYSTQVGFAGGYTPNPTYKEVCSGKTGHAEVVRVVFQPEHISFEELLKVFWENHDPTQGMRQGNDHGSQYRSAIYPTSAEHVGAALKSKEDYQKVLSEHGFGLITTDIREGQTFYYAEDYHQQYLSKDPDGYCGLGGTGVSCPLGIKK

Cc1ccc(NC2CCCN(C(=O)c3cn(C)c4ccccc34)C2)cc1C (stereo unspecified)
IC50 (CHO-K1): > 66.2 µM (inactive) | IC50 [1]: 8.18 µM (active) | IC50 (Orexin receptor type 2 [2]): 7.1 µM (active) | IC50 [3]: 0.771 µM (active) | IC50 [4]: > 49.7 µM (inactive) | IC50 (Orexin receptor type 2 [5]): 1.64 µM (active)

Cc1ccc(C=Nn2c(-c3ccco3)n[nH]c2=S)s1
IC50 [6]: > 99 µM (inactive) | IC50 [7]: 3.67 µM (active) | IC50 [8]: 2.09 µM (active) | IC50 [9]: 85.5 µM (inactive)

CCN(CC)c1ccc(NC(=O)Cn2c(C(C)NC(=O)c3ccccc3)nc3ccccc32)cc1 (stereo unspecified)
IC50 (CHO-K1): > 66.2 µM (inactive) | IC50 [1]: 0.382 µM (active) | IC50 (Orexin receptor type 2 [2]): > 88.8 µM (inactive) | EC50 [10]: > 100 µM (not active) | IC50 [3]: 0.106 µM (active) | IC50 [4]: > 49.7 µM (inactive) | IC50 [11]: > 50 µM (inactive) | IC50 (Orexin receptor type 2 [5]): > 50 µM (inactive)

Oc1ccc(C2Nc3cccc4cccc(c34)N2)cc1
EC50 (Insulin-degrading enzyme [12]): 11.1 µM (inactive) | EC50 (HEK293 [13]): 20.4 µM (inactive) | EC50 (Insulin-degrading enzyme [14]): 6.73 µM (active) | IC50 (HEK293 [15]): > 89.2 µM (inactive) | CC50 [16]: 21.8 µM (active)

O=C(NCc1cccnc1)c1ccc(=O)oc1
IC50 [17]: 140 µM (inactive)

COC(=O)c1coc(-c2cc3ccccc3s2)n1
EC50 [18]: > 100 µM (inactive)

OC[C@@H]1CN(Cc2ccc(-c3ccccc3)cc2)C[C@H](n2cnc3c(NC4CC4)ncnc32)O1
IC50 [19]: 16.9 µM (inactive)
